Patent US8207172B2 (Bayer Intellectual Property GmbH, priority 2004, dated 2012)

Experiments:
[1] = test system: BT474 (human breast carcinoma); experiment: In vitro tumor cell proliferation assay (Cell Titer-Glo luminescent cell viability), BT474; assay type: cell-based; settings: BT-474, 72 h, BT474 cells, 72 hours of drug exposure, ATP luminescence readout, read-out: IC50, anti-proliferative activity (inhibition of cell proliferation)
In short: (§1)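 Seeding density 2.5×10^3 cells/well; 72 h drug exposure at 37° C; endpoint CellTiter-Glo luminescence, reported as IC50.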

[2] = test system: A431 cells (human epidermoid carcinoma); experiment: In vitro tumor cell proliferation assay (Cell Titer-Glo luminescent cell viability), A431; assay type: cell-based; settings: A-431, 72 h, 72 hours of drug exposure, ATP luminescence readout, read-out: IC50, anti-proliferative activity (inhibition of cell proliferation)
In short: as §1

Row | SMILES | IC50 [1] | IC50 [2]
1 | Fc1cccc(COc2ccc(Nc3ncnc4sc5c(c34)CCc3nn(CCN4CCOCC4)cc3-5)cc2Cl)c1 [Example 63, N-{3-chloro-4-[(3-fluorobenzyl)oxy]phenyl}-2-(2-morpholin-4-ylethyl)-4,5-dihydro-2H-pyrimido[5′,4′:4,5]thieno[2,3-e]indazol-6-amine] | ≤ 1000 nM | ≤ 5000 nM
2 | OCCN(CCO)CCn1cc2c(n1)CCc1c-2sc2ncnc(Nc3ccc(OCc4cccc(F)c4)c(Cl)c3)c12 [Example 64, 2,2′-({2-[6-({3-chloro-4-[(3-fluorobenzyl)oxy]phenyl}amino)-4,5-dihydro-2H-pyrimido[5′,4′:4,5]thieno[2,3-e]indazol-2-yl]ethyl}imino)diethanol] | ≤ 1000 nM | ≤ 5000 nM
3 | Fc1cccc(COc2ccc(Nc3ncnc4sc5c(c34)CCc3nn(CCN4CCCC4)cc3-5)cc2Cl)c1 [Example 65, N-{3-chloro-4-[(3-fluorobenzyl)oxy]phenyl}-2-(2-pyrrolidin-1-ylethyl)-4,5-dihydro-2H-pyrimido[5′,4′:4,5]thieno[2,3-e]indazol-6-amine] | ≤ 1000 nM | ≤ 5000 nM
4 | CN(C)C1CCN(CCn2cc3c(n2)CCc2c-3sc3ncnc(Nc4ccc(OCc5cccc(F)c5)c(Cl)c4)c23)C1 (centres unmarked) [Example 66, N-{3-chloro-4-[(3-fluorobenzyl)oxy]phenyl}-2-{2-[3-(dimethylamino)pyrrolidin-1-yl]ethyl}-4,5-dihydro-2H-pyrimido[5′,4′:4,5]thieno[2,3-e]indazol-6-amine] | ≤ 1000 nM | ≤ 5000 nM
5 | CN(C)CCNCCn1cc2c(n1)CCc1c-2sc2ncnc(Nc3ccc(OCc4cccc(F)c4)c(Cl)c3)c12 [Example 67, N′-{2-[6-({3-chloro-4-[(3-fluorobenzyl)oxy]phenyl}amino)-4,5-dihydro-2H-pyrimido[5′,4′:4,5]thieno[2,3-e]indazol-2-yl]ethyl}-N,N-dimethylethane-1,2-diamine] | ≤ 1000 nM | ≤ 5000 nM

Results, then the compound that gave them:

Row | IC50 [1] | IC50 [2] | SMILES
6 | ≤ 1000 nM | ≤ 5000 nM | CN(C)[C@H]1CCN(CCn2cc3c(n2)CCc2c-3sc3ncnc(Nc4ccc(OCc5cccc(F)c5)c(Cl)c4)c23)C1 [Example 58, N-{3-chloro-4-[(3-fluorobenzyl)oxy]phenyl}-2-{2-[(3S)-3-(dimethylamino)pyrrolidin 1-yl]ethyl}-4,5-dihydro-2H-pyrimido[5′,4′:4,5]thieno[2,3-e]indazol-6-amine]
7 | ≤ 1000 nM | ≤ 5000 nM | COCCNCCn1cc2c(n1)CCc1c-2sc2ncnc(Nc3ccc(OCc4cccc(F)c4)c(Cl)c3)c12 [Example 59, N-{3-chloro-4-[(3-fluorobenzyl)oxy]phenyl}-2-{2-[(2-methoxyethyl)amino]ethyl}-4,5-dihydro-2H-pyrimido[5′,4′:4,5]thieno[2,3-e]indazol-6-amine]
8 | ≤ 1000 nM | ≤ 5000 nM | CN(C)[C@@H]1CCN(CCn2cc3c(n2)CCc2c-3sc3ncnc(Nc4ccc(OCc5cccc(F)c5)c(Cl)c4)c23)C1 [Example 60, N-{3-chloro-4-[(3-fluorobenzyl)oxy]phenyl}-2-{2-[(3R)-3-(dimethylamino)pyrrolidin-1-yl]ethyl}-4,5-dihydro-2H-pyrimido[5′,4′:4,5]thieno[2,3-e]indazol-6-amine]
9 | ≤ 1000 nM | ≤ 5000 nM | OCCNCCn1cc2c(n1)CCc1c-2sc2ncnc(Nc3ccc(OCc4cccc(F)c4)c(Cl)c3)c12 [Example 61, 2-({2-[6-({3-chloro-4-[(3-fluorobenzyl)oxy]phenyl}amino)-4,5-dihydro-2H-pyrimido[5′,4′:4,5]thieno[2,3-e]indazol-2-yl]ethyl}amino)ethanol]
10 | ≤ 1000 nM | ≤ 5000 nM | CN1CCN(CCn2cc3c(n2)CCc2c-3sc3ncnc(Nc4ccc(OCc5cccc(F)c5)c(Cl)c4)c23)CC1 [Example 62, N-{3-chloro-4-[(3-fluorobenzyl)oxy]phenyl}-2-[2-(4-methylpiperazin-1-yl)ethyl]-4,5-dihydro-2H-pyrimido[5′,4′:4,5]thieno[2,3-e]indazol-6-amine]
